We go through 30 compounds from patent US5643912A, “Pyrazinoic acid esters as anti-mycobacterium avium agents” (The Research Foundation of State University of NY, priority 1996, dated 1997).

Common to all, as to format: cell-based
Test [1] relates to M. avium 101. Kind of test: Broth dilution MIC vs M. avium 101. To be noted: Mycobacterium avium, 7H10 broth, pH 5.8. Background: Broth dilution looks for growth in wells or tubes with falling amounts of substance.
Test [2] relates to M. kansasii SWK. Kind of test: Broth dilution MIC vs M. kansasii SWK. The note with it: Mycobacterium kansasii, 7H10 broth, pH 5.8.
Test [3] concerns M. tuberculosis 102. Kind of test: Broth dilution MIC vs M. tuberculosis 102.
Test [4] deals with M. avium LPR. Kind of test: Broth dilution MIC vs M. avium LPR. To be noted: Mycobacterium avium, M. avium LPR (footnote a), 7H10 broth, pH 5.8.
In test [5] the test system is M. tuberculosis BUR. Kind of test: Broth dilution MIC vs M. tuberculosis BUR. The note with it: Mycobacterium tuberculosis, M. tuberculosis BUR (footnote b), 7H10 broth, pH 5.8.
The mark [6] stands for this setting: Mycobacterium tuberculosis, 102, pH 5.8, M. tuberculosis 102, 7H10 broth, read-out: MIC.

Values after ≈ are worked out from the molar mass of the structure shown. Read-outs that look alike come from different tables or passages of the source. Where only a bound is given, the exact number is not on record here.

In the case of `CCOCCOCCOC(=O)c1cnc(Cl)cn1` [Example 10], the MIC in test [1] was found to be 64 µg/mL (≈ 233 µM); in test [2], 4 µg/mL (≈ 14.6 µM); in test [3] (setting [6]), 1 µg/mL (≈ 3.64 µM).
On to `COC(=O)c1cnc(F)cn1` [Example 23], for which the MIC in test [1] came out at 64 µg/mL (≈ 410 µM); in test [2] it was 8 µg/mL (≈ 51.2 µM); in test [3] (setting [6]), 4 µg/mL (≈ 25.6 µM).
For `O=C(OCc1ccccc1)c1cnccn1` [Example 52], in that order: 64 µg/mL (≈ 299 µM), 1 µg/mL (≈ 4.67 µM) and 1 µg/mL (≈ 4.67 µM).
Consider `CC(C)(C)c1ccc(OC(=O)c2cnccn2)cc1` [Example 65], for which the MIC in test [2] and in test [3] (setting [6]) was 25 µg/mL (≈ 97.5 µM) in each case.
Consider `CCCCCC(C)OC(=O)c1cnc(Cl)cn1` (centres unmarked) [Example 24], for which the values for the MIC in test [1], in test [2] and in test [3] (setting [6]) were 32 µg/mL (≈ 125 µM), below 0.13 µg/mL and 0.06 µg/mL (≈ 0.234 µM), respectively.
In the case of `CCCCCCC(C)OC(=O)c1cnc(Cl)cn1` (centres unmarked) [Example 8], the MIC in test [1] was 32 µg/mL (≈ 118 µM); in test [2], below 0.25 µg/mL; in test [3] (setting [6]), below 0.25 µg/mL.
For the compound `CCCCCCC(C)(CCCCCC)OC(=O)c1cnc(Cl)cn1` [Example 17], the minimal inhibitory concentration (MIC) in test [4] was 16 µg/mL (≈ 45.1 µM); in test [2], 2 µg/mL (≈ 5.64 µM); in test [3] (setting [6]), 0.25 µg/mL (≈ 0.704 µM).
Take `CCCCCCCCCC(C)(CCCCCCC)OC(=O)c1cnc(Cl)cn1` (centres unmarked) [Example 48]: the minimum inhibitory concentration (MIC) in test [1] was above 64 µg/mL; in test [3] (setting [6]), 0.5 µg/mL (≈ 1.22 µM).
For `CCCCCCCC(C)(CCCCC)OC(=O)c1cnc(Cl)cn1` (centres unmarked) [Example 47], in that order: above 64 µg/mL and 2 µg/mL (≈ 5.64 µM).
Consider `CCCCCCCCCCCCCCCOC(=O)c1cnc(Cl)cn1` [Example 7], for which the MIC was above 16 µg/mL in test [1], 0.25 µg/mL (≈ 0.678 µM) in test [2] and 0.13 µg/mL (≈ 0.352 µM) in test [3] (setting [6]).
Regarding `O=C(OCC(F)(F)F)c1cnccn1` [Example 41], the MIC in test [2] is 100 µg/mL (≈ 485 µM); in test [5] it was 25 µg/mL (≈ 121 µM).
Take `CCCCCC(C)(CCC)OC(=O)c1cnc(Cl)cn1` (centres unmarked) [Example 44]: the values for the MIC in test [1], in test [2] and in test [3] (setting [6]) were above 256 µg/mL, 4 µg/mL (≈ 13.4 µM) and 4 µg/mL (≈ 13.4 µM), respectively.
As to `CCCCCOC(=O)c1cnc(Cl)cn1` [Example 26], the MIC in test [1] was 32 µg/mL (≈ 140 µM); in test [2] it was 0.03 µg/mL (≈ 0.131 µM); in test [3] (setting [6]) it was 0.06 µg/mL (≈ 0.262 µM).
Consider `O=C(Oc1ccc([N+](=O)[O-])cc1)c1cnccn1` [Example 63], for which the MIC in test [2] amounted to 25 µg/mL (≈ 102 µM); in test [5], 12.5 µg/mL (≈ 51 µM).
Consider `O=C(OC(C(F)(F)F)C(F)(F)F)c1cnccn1` [Example 60], for which, in test [5], the lowest concentration to inhibit growth (MIC) was 100 µg/mL (≈ 365 µM).
With `CCCCCCCCCC(C)OC(=O)c1cnc(Cl)cn1` (centres unmarked) [Example 36], the results for the MIC in test [1], in test [2] and in test [3] (setting [6]) were 16 µg/mL (≈ 51.1 µM), 0.25 µg/mL (≈ 0.799 µM) and 0.25 µg/mL (≈ 0.799 µM), respectively.
Take `CCCCCCCOC(=O)c1cnc(Cl)cn1` [Example 18]: the MIC was 8 µg/mL (≈ 31.2 µM) in test [1], below 0.03 µg/mL in test [2] and 0.06 µg/mL (≈ 0.234 µM) in test [3] (setting [6]).
With `COCCOCCOC(=O)c1cnc(Cl)cn1` [Example 9], the MIC in test [1] came out at 64 µg/mL (≈ 246 µM); in test [2], 2 µg/mL (≈ 7.67 µM); in test [3] (setting [6]) it was 2 µg/mL (≈ 7.67 µM).
For the compound `CCCCOC(=O)c1cnc(Cl)cn1` [Example 31], the MIC in test [1] was 64 µg/mL (≈ 298 µM); in test [2], below 1 µg/mL; in test [3] (setting [6]), 0.25 µg/mL (≈ 1.16 µM).
For `CCCCCCC(C)(C)OC(=O)c1cnc(Cl)cn1` [Example 21], in that order: 64 µg/mL (≈ 225 µM), 1 µg/mL (≈ 3.51 µM) and 0.25 µg/mL (≈ 0.878 µM).
Regarding `CCCCCCCCCCCCCCCOC(=O)c1cnccn1` [Example 2], the MIC in test [4] was 8 µg/mL (≈ 23.9 µM); in test [2], 1 µg/mL (≈ 2.99 µM); in test [3] (setting [6]), 0.06 µg/mL (≈ 0.179 µM).
Regarding `CCCCCCCC(C)(CCCC)OC(=O)c1cnc(Cl)cn1` (centres unmarked) [Example 37], the MIC is above 64 µg/mL in test [1], 16 µg/mL (≈ 46.9 µM) in test [2] and 8 µg/mL (≈ 23.5 µM) in test [3] (setting [6]).
For `CCCOC(=O)c1cnc(Cl)cn1` [Example 15] the same measures were 16 µg/mL (≈ 79.8 µM), 0.25 µg/mL (≈ 1.25 µM) and 0.06 µg/mL (≈ 0.299 µM).
For `COCCOCCOCCOC(=O)c1cnc(Cl)cn1` [Example 12], in that order: 64 µg/mL (≈ 210 µM), 8 µg/mL (≈ 26.3 µM) and 2 µg/mL (≈ 6.56 µM).
Turning to `CCC(C)OC(=O)c1cnccn1` (centres unmarked) [Example 50], the MIC in test [1] came to 256 µg/mL (≈ 1420 µM); in test [2] it was 16 µg/mL (≈ 88.8 µM); in test [3] (setting [6]), 8 µg/mL (≈ 44.4 µM).
`CCCCCCC(C)(C)OC(=O)c1cnc(Cl)cn1` [Example 22]: the MIC in test [3] (M. tuberculosis 102, 7H10 broth, pH 5.8) worked out at 0.13 µg/mL (≈ 0.456 µM).
Turning to `CCCCCCCCCCOC(=O)c1cnccn1` [Example 1], the results for the MIC in test [1], in test [2] and in test [3] (setting [6]) were 32 µg/mL (≈ 121 µM), 0.25 µg/mL (≈ 0.946 µM) and 0.5 µg/mL (≈ 1.89 µM), respectively.
With `CCCCCCC(CCCCCC)OC(=O)c1cnc(Cl)cn1` [Example 16], the results for the MIC in test [1], in test [2] and in test [3] (setting [6]) were 16 µg/mL (≈ 46.9 µM), 0.5 µg/mL (≈ 1.47 µM) and 0.25 µg/mL (≈ 0.733 µM), respectively.
Consider `O=C(OCCCl)c1cnccn1` [Example 62], for which the results for the minimum inhibitory concentration (MIC) in test [2] and in test [5] were 25 µg/mL (≈ 134 µM) and 6.3 µg/mL (≈ 33.8 µM), respectively.
For the compound `O=C(Oc1c(Br)cc(Br)cc1Br)c1cnccn1` [Example 4], the MIC in test [1] turned out to be 128 µg/mL (≈ 293 µM); in test [2] it was 64 µg/mL (≈ 146 µM); in test [3] (setting [6]), 32 µg/mL (≈ 73.2 µM).

For orientation: MIC means the lowest concentration that inhibits growth of the organism.
